Experimental data as given in patent US11168073B2, “3,3-difluoroallylamines or salts thereof and pharmaceutical compositions comprising the same” (YUHAN CORPORATION, priority 2018, dated 2021).
Structures can show the parent of a compound that is named as a salt. Where two headings read alike, the source gives them in different places.

Columns and labels:
Assay type in all cases: biochemical
[1] = molecular target: T1, recombinant human DAO (diamine oxidase) (Homo sapiens, UniProt P19801); experiment: Activity evaluation on recombinant human DAO (Amplex Red/HRP-coupled assay, 1 mM putrescine substrate); settings: read-out: Inhibitory Activity (IC50, nM) DAO
T1 construct: purchased R&D systems
T1 sequence (P19801 20-751): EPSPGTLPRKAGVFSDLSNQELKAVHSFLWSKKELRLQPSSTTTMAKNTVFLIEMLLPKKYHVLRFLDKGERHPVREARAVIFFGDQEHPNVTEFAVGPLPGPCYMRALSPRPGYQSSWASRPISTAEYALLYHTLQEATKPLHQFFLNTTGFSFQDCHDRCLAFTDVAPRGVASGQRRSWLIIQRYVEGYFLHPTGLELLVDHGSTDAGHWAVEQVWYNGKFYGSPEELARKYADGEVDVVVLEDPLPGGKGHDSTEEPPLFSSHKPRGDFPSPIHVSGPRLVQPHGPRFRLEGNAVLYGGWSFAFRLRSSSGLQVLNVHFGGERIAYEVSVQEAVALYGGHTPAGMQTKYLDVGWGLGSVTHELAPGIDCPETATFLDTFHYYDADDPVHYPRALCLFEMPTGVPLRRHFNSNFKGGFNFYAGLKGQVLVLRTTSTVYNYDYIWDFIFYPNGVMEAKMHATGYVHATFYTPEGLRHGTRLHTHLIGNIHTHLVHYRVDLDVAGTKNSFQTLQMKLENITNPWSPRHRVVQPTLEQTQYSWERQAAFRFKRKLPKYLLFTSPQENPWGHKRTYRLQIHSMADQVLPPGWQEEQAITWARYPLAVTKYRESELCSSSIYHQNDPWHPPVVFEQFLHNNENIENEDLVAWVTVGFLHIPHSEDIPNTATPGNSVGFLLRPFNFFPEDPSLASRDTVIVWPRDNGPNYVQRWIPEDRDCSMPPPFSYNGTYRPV
Protocol: (§1) The compounds according to the present technology were evaluated in terms of activity on recombinant human VAP-1 (R&D systems) by measuring the level of hydrogen peroxide in horseradish peroxidase (HRP)-coupled reaction using Amplex Red Hydrogen Peroxide Assay Kit (Molecular Probes, Invitrogen, USA). The experiment was carried out at room temperature using benzylamine as a substrate. In the HRP-coupled reaction, hydrogen peroxide oxidation of 10-acetyl-3,7-dihydroxyphenoxazine (Amplex Red reagent) produces resorufin, which is a highly fluorescent compound. Briefly, the test compound was dissolved in dimethyl sulfoxide (DMSO) at a concentration of 20 mM. The dose-response assessment was made by 1:3 serial dilution in DMSO, thereby creating a 8 point curve. The concentration of the upper part was controlled according to the efficacy of the compounds, followed by the dilution with a reaction buffer solution to obtain a final DMSO concentration of less than 1%. To each well of a 96 black well plate, human VAP-1 purified in 50 mM sodium phosphate buffer solution (pH7.4) was added. The test compounds dissolved in DMSO were incubated with the human VAP-1 enzymes at 37° C. for 30 minutes. After 30-minute incubation, each well was added with a reaction mixture containing 200 uM Amplex Red reagent prepared from 50 mM sodium phosphate buffer solution (pH 7.4), 1 mM benzylamine, and 1 U/mL HRP. Fluorescence intensity was measured at several time points during 1-2 hours using a microplate reader (Flexstation3, Molecular Devices) under the wavelength condition exciting at 544 nm and reading the emission at 590 nm. The inhibitory effect of the compounds was measured as a decrease (%) in the signal rate as compared to the control group without any inhibitor (only diluted DMSO). Data was fixed to a logistic model with four variables and IC50 value was calculated using GraphPad Prism program.
(§2) In addition, the compounds according to the present technology were evaluated in terms of activity on a recombinant human MAO-A (monoamine oxidase-A, Sigma-Aldrich) and a recombinant human MAO-B (monoamine oxidase-B, Sigma-Aldrich) by using as substrates, 0.5 mM tyramine and 1 mM benzylamine, respectively, with a method similar to the activity evaluation method for recombinant human VAP-1. The compounds according to the present technology were also evaluated in terms of activity on a recombinant human DAO (diamine oxidase, R&D systems) by using as a substrate 1 mM putrescine with a method similar to the activity evaluation method for recombinant human VAP-1.

[2] = molecular target: T2, recombinant human MAO-B (monoamine oxidase-B) (Homo sapiens, UniProt P27338); experiment: Activity evaluation on recombinant human MAO-B (Amplex Red/HRP-coupled assay, 1 mM benzylamine substrate); settings: read-out: Inhibitory Activity (IC50, nM) MAO-B
T2 construct: purchased Sigma-Aldrich
T2 sequence (P27338 1-520): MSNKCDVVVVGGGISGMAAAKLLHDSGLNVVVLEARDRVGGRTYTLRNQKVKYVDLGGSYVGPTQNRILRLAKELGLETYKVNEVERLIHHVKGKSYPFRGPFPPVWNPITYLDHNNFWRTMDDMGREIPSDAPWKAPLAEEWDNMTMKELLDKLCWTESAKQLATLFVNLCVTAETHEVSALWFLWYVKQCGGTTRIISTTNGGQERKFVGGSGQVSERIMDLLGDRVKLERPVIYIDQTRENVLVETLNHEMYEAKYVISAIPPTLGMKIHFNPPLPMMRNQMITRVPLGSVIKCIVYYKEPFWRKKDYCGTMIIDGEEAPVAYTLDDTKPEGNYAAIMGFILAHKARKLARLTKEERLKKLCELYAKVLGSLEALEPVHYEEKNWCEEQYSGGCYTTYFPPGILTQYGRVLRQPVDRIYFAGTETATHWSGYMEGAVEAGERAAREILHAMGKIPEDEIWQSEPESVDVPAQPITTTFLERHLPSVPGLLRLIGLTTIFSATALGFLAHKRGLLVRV
Protocol: as §1, §2

[3] = molecular target: T3, recombinant human MAO-A (monoamine oxidase-A) (Homo sapiens, UniProt P21397); experiment: Activity evaluation on recombinant human MAO-A (Amplex Red/HRP-coupled assay, 0.5 mM tyramine substrate); settings: read-out: Inhibitory Activity (IC50, nM) MAO-A
T3 construct: purchased Sigma-Aldrich
T3 sequence (P21397 1-527): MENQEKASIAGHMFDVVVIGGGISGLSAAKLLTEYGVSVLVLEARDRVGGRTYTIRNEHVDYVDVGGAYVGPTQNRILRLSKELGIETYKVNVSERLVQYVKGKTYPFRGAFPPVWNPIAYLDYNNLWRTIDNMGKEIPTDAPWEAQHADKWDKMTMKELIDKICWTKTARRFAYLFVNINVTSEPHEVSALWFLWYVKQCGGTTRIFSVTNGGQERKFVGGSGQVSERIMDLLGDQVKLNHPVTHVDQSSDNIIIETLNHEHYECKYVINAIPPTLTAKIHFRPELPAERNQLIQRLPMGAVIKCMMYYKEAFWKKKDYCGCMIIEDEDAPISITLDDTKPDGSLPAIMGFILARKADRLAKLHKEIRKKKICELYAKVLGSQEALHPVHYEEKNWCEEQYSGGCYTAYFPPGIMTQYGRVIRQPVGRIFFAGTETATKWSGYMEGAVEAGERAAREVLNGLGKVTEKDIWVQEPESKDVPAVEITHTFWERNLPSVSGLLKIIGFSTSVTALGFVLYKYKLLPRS
Protocol: as §1, §2

recombinant human VAP-1 = molecular target: T4, recombinant human VAP-1 (Homo sapiens, UniProt Q16853); experiment: Activity evaluation on recombinant human VAP-1 (Amplex Red/HRP-coupled hydrogen peroxide assay, benzylamine substrate); settings: read-out: Inhibitory Activity (IC50, nM) human VAP-1
T4 construct: purchased R&D systems
T4 sequence (Q16853 1-763): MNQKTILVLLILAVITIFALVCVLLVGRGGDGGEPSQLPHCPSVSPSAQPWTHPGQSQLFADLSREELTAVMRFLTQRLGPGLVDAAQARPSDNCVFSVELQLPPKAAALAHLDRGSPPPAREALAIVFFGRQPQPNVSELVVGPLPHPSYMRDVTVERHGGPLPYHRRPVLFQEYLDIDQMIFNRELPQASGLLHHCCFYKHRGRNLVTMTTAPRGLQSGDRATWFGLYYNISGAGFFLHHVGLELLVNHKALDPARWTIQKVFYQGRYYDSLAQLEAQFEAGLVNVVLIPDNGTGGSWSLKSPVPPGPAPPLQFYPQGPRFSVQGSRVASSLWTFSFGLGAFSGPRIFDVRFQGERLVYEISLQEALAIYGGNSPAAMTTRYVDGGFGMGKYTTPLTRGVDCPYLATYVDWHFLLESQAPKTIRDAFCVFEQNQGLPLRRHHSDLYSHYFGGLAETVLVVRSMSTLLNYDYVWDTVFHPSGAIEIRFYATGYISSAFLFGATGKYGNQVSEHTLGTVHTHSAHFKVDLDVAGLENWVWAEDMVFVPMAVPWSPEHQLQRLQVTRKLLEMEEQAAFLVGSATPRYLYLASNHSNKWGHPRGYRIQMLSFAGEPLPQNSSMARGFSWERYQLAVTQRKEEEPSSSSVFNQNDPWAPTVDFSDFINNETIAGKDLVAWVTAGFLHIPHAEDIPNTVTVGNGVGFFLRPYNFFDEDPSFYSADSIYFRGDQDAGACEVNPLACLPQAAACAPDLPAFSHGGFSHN
Protocol: as §1

[4] = recombinant human VAP-1, 30 min preincubation at 37° C., 1 mM benzylamine
[5] = recombinant human VAP-1, benzylamine substrate

CN(C)c1ccc(-c2cc(-n3cnn(CC(CN)=C(F)F)c3=O)ccn2)cn1 [Example 63, 2-[2-(aminomethyl)-3,3-difluoro-allyl]-4-[2-[6-(dimethylamino)-3-pyridyl]-4-pyridyl]-1,2,4-triazol-3-one Trifluoroacetate]
IC50 ([1]; 1 mM putrescine): 110 nM | IC50 ([2]; 1 mM benzylamine): 16000 nM | IC50 ([3]; 0.5 mM tyramine): > 100000 nM | IC50 (recombinant human VAP-1; [4]): 0.7 nM

COc1ccc(-c2cnc(-n3cnn(CC(CN)=C(F)F)c3=O)c(C)c2)cn1 [Example 225, 2-[2-(aminomethyl)-3,3-difluoro-allyl]-4-[5-(6-methoxy-3-pyridyl)-3-methyl-2-pyridyl]-1,2,4-triazol-3-one Trifluoroacetate]
IC50 ([1]; 1 mM putrescine substrate): 14000 nM | IC50 ([2]; 1 mM benzylamine substrate): 1600 nM | IC50 ([3]; 0.5 mM tyramine substrate): > 100000 nM | IC50 (recombinant human VAP-1; [5]): 0.5 nM

CN(C)c1ccc(-c2cccc(Cn3cnn(CC(CN)=C(F)F)c3=O)c2)cn1 [Example 273, 2-[2-(aminomethyl)-3,3-difluoro-allyl]-4-[[3-[6-(dimethylamino)-3-pyridyl]phenyl]methyl]-1,2,4-triazol-3-one Trifluoroacetate]
IC50 ([1]; 1 mM putrescine substrate): 39300 nM | IC50 ([2]; 1 mM benzylamine substrate): 2900 nM | IC50 ([3]; 0.5 mM tyramine substrate): > 100000 nM | IC50 (recombinant human VAP-1; [5]): 1.8 nM

Cc1cc(-c2ccc3sc(Cn4cnn(CC(CN)=C(F)F)c4=O)cc3c2)cc2c1NC(=O)CC2 [Example 210, 6-[2-[[1-[2-(aminomethyl)-3,3-difluoro-allyl]-5-oxo-1,2,4-triazol-4-yl]methyl]benzothiophen-5-yl]-8-methyl-3,4-dihydro-1H-quinolin-2-one Trifluoroacetate]
IC50 ([1]; 1 mM putrescine substrate): 1230 nM | IC50 ([2]; 1 mM benzylamine substrate): > 100000 nM | IC50 ([3]; 0.5 mM tyramine substrate): > 100000 nM | IC50 (recombinant human VAP-1; [5]): 1.5 nM

CC(=O)N1CCN(c2ccc(-c3csc(Cn4cnn(CC(CN)=C(F)F)c4=O)c3)cc2)CC1 [Example 188, 4-[[4-[4-(4-acetylpiperazin-1-yl)phenyl]-2-thienyl]methyl]-2-[2-(aminomethyl)-3,3-difluoro-allyl]-1,2,4-triazol-3-one Trifluoroacetate]
IC50 ([1]; 1 mM putrescine substrate): 7400 nM | IC50 ([2]; 1 mM benzylamine substrate): > 100000 nM | IC50 ([3]; 0.5 mM tyramine substrate): > 100000 nM | IC50 (recombinant human VAP-1; [5]): 3.4 nM

CS(=O)(=O)c1ccc(-c2cccc(-n3cnn(CC(CN)=C(F)F)c3=O)c2)cc1 [Example 17, 2-[2-(aminomethyl)-3,3-difluoro-allyl]-4-[3-(4-methylsulfonylphenyl)phenyl]-1,2,4-triazol-3-one Trifluoroacetate]
IC50 ([1]; 1 mM putrescine): 1300 nM | IC50 ([2]; 1 mM benzylamine): > 10000 nM | IC50 ([3]; 0.5 mM tyramine): > 100000 nM | IC50 (recombinant human VAP-1; [4]): 12 nM

Cc1cc(-n2cnn(CC(CN)=C(F)F)c2=O)cnc1-c1ccc2c(c1)OCO2 [Example 79, 2-[2-(aminomethyl)-3,3-difluoro-allyl]-4-[6-(1,3-benzodioxol-5-yl)-5-methyl-3-pyridyl]-1,2,4-triazol-3-one Trifluoroacetate]
IC50 ([1]; 1 mM putrescine): 200 nM | IC50 ([2]; 1 mM benzylamine): 910 nM | IC50 ([3]; 0.5 mM tyramine): > 100000 nM | IC50 (recombinant human VAP-1; [4]): 0.9 nM

CN(C)c1ncc(-c2ccc(Cn3cnn(CC(CN)=C(F)F)c3=O)s2)cc1F [Example 115, 2-[2-(aminomethyl)-3,3-difluoro-allyl]-4-[[5-[6-(dimethylamino)-5-fluoro-3-pyridyl]-2-thienyl]methyl]-1,2,4-triazol-3-one Trifluoroacetate]
IC50 ([1]; 1 mM putrescine): 11000 nM | IC50 ([3]; 0.5 mM tyramine): > 100000 nM | IC50 (recombinant human VAP-1; [4]): 0.8 nM

NCC(Cn1ncn(-c2ccc(Br)nc2)c1=O)=C(F)F [Example 7, 2-[2-(aminomethyl)-3,3-difluoro-allyl]-4-(6-bromo-3-pyridyl)-1,2,4-triazol-3-one Trifluoroacetate]
IC50 ([2]; 1 mM benzylamine): 6100 nM | IC50 ([3]; 0.5 mM tyramine): > 100000 nM | IC50 (recombinant human VAP-1; [4]): 9.4 nM

CN(C)c1ccc(C#Cc2ccc(Cn3cnn(CC(CN)=C(F)F)c3=O)s2)cn1 [Example 162, 2-[2-(aminomethyl)-3,3-difluoro-allyl]-4-[[5-[2-[6-(dimethylamino)-3-pyridyl]ethynyl]-2-thienyl]methyl]-1,2,4-triazol-3-one Trifluoroacetate]
IC50 ([1]; 1 mM putrescine): > 10000 nM | IC50 ([3]; 0.5 mM tyramine): > 10000 nM | IC50 (recombinant human VAP-1; [4]): 0.7 nM
